Reference: patent publication US20260284201A1, “COMPOSITIONS AND METHODS FOR TREATING TENDON AND BONE INJURIES” (The United States Government as represented by the …, priority 2023, published 2026)

What was measured:
[1] = tested on: canine tendon-to-bone healing; conditions: cited from earlier work
[2] = tested on: osteoclasts; conditions: cited from earlier work
[3] = tested on: osteoporotic rats; conditions: cited from earlier work
[4] = tested on: rat rotator cuff repairs; conditions: cited from earlier work
[5] = tested on: osteoporotic mouse model; conditions: 1.25 mg/kg intravenously; cited from earlier work
[6] = tested on: fracture healing; conditions: 1.25 mg/kg systemically once per week; cited from earlier work
[7] = tested on: mice in space; test: Bone volume among mice in space (unpublished data); format: in vivo; conditions: 10 mg/kg once per week

NCCCC(O)(P(=O)(O)O)P(=O)(O)O [alendronate]
incidence of suture pull through tendon [1]: lower incidence of suture pull through tendon
ultimate load to failure [1]: improved ultimate load to failure

CC(O)(P(=O)(O)O)P(=O)(O)O [etidronate]
inhibition of the function of osteoclasts [2]: do not inhibit the function of osteoclasts

O=P(O)(O)C(O)(Cc1cccnc1)P(=O)(O)O [risedronate]
rotator cuff healing [3]: beneficial to rotator cuff healing

O=P(O)(O)C(O)(Cn1ccnc1)P(=O)(O)O [zolendronate]
tendon-to-bone healing [4]: negative effects on tendon-to-bone healing

methylhydroxyl diphosphonate
inhibition of the function of osteoclasts [2]: do not inhibit the function of osteoclasts

B1: rhNELL-1: recombinant human NELL-1 (protein, UniProt Q92832 22-810, looked up)
Protein kinase C-binding …: FGMDPDLQMDIVTELDLVNTTLGVAQVSGMHNASKAFLFQDIEREIHAAPHVSEKLIQLFRNKSEFTILATVQQKPSTSGVILSIRELEHSYFELESSGLRDEIRYHYIHNGKPRTEALPYRMADGQWHKVALSVSASHLLLHVDCNRIYERVIDPPDTNLPPGINLWLGQRNQKHGLFKGIIQDGKIIFMPNGYITQCPNLNHTCPTCSDFLSLVQGIMDLQELLAKMTAKLNYAETRLSQLENCHCEKTCQVSGLLYRDQDSWVDGDHCRNCTCKSGAVECRRMSCPPLNCSPDSLPVHIAGQCCKVCRPKCIYGGKVLAEGQRILTKSCRECRGGVLVKITEMCPPLNCSEKDHILPENQCCRVCRGHNFCAEGPKCGENSECKNWNTKATCECKSGYISVQGDSAYCEDIDECAAKMHYCHANTVCVNLPGLYRCDCVPGYIRVDDFSCTEHDECGSGQHNCDENAICTNTVQGHSCTCKPGYVGNGTICRAFCEEGCRYGGTCVAPNKCVCPSGFTGSHCEKDIDECSEGIIECHNHSRCVNLPGWYHCECRSGFHDDGTYSLSGESCIDIDECALRTHTCWNDSACINLAGGFDCLCPSGPSCSGDCPHEGGLKHNGQVWTLKEDRCSVCSCKDGKIFCRRTACDCQNPSADLFCCPECDTRVTSQCLDQNGHKLYRSGDNWTHSCQQCRCLEGEVDCWPLTCPNLSCEYTAILEGECCPRCVSDPCLADNITYDIRKTCLDSYGVSRLSGSVWTMAGSPCTTCKCKNGRVCCSVDFECLQNN
bone formation [5]: lead to bone formation

B2: NELL-1-PEG: chemically modified version of NELL-1 protein using polyethylene glycol (PEGylation) (protein, UniProt Q92832 22-810, looked up)
Protein kinase C-binding …: B1 Protein kinase C-binding …
modifications: PEG
ectopic bone formation, radiographically or on organ retrieval analysis [6]: no evidence of ectopic bone formation
fracture healing [6]: enhance fracture healing
toxicology testing [6]: no abnormalities detected on toxicology testing

B3: BP-NELL-1-PEG: NELL-1-PEG covalently bound to BP molecules (conjugate, UniProt Q92832 22-810, looked up)
Protein kinase C-binding …: B1 Protein kinase C-binding …
modifications: PEG; bisphosphonate conjugate
bone volume [7]: preserve bone volume
